Common to all, as to format: functional
The subject of experiment [1] is HT-29. Briefly: Cytotoxicity against human HT-29 cells assessed as cell viability at 4 nM incubated for 48 hrs by MTT assay. The following applies: HT-29, 48 h, read-out: Activity. In general terms: Tetrazolium dyes change colour on reduction, which living cells bring about.
The subject of experiment [2] is HT-29. Kind of experiment: Cytotoxicity against human HT-29 cells assessed as cell viability at 4 nM incubated for 48 hrs in presence of 0.32 nM dolastatin 10 by MTT assay.
Experiment [3] concerns HT-29. Kind of experiment: Cytotoxicity against human HT-29 cells assessed as cell viability at 0.32 nM incubated for 48 hrs in presence of 4 nM largazole by MTT assay.
The subject of experiment [4] is HT-29. Kind of experiment: Cytotoxicity against human HT-29 cells assessed as cell viability at 0.32 nM incubated for 48 hrs by MTT assay. The following applies: HT-29, 48 h, read-out: Activity.

`CCCCCCCC(=O)SCC/C=C/[C@@H]1CC(=O)NCc2nc(cs2)C2=N[C@@](C)(CS2)C(=O)N[C@@H](C(C)C)C(=O)O1` [LARGAZOLE]: the viability at 0.004 µM in the experiment with HT-29 [1] was 80%. The Activity with HT-29 [2] is given as 55%.

As to `CC[C@H](C)[C@@H]([C@@H](CC(=O)N1CCC[C@H]1[C@H](OC)[C@@H](C)C(=O)N[C@@H](Cc1ccccc1)c1nccs1)OC)N(C)C(=O)[C@@H](NC(=O)[C@H](C(C)C)N(C)C)C(C)C` [DOLASTATIN-10], the Activity with HT-29 [3] is 55%. Further, the viability at 0.00032 µM with HT-29 [4] was 80%.
